The values that follow come from paper PMC9457746, “Synthesis of Sulfonamides Incorporating Piperidinyl-Hydrazidoureido and Piperidinyl-Hydrazidothioureido Moieties and Their Carbonic Anhydrase I, II, IX and XII Inhibitory Activity” (Molecules, 2022).

Bounds are passed on as bounds.

In one series the target is hCA IX (Homo sapiens, UniProt Q16790). Nature of the series: stopped flow CO2 hydrase assay, hCA IX inhibition.
The target of the next series is hCA I (Homo sapiens, UniProt P00915). Kind of series: stopped flow CO2 hydrase assay, hCA I inhibition.
The target in the next series is hCA XII (Homo sapiens, UniProt O43570). Kind of series: stopped flow CO2 hydrase assay, hCA XII inhibition.
A further series addresses hCA II (Homo sapiens, UniProt P00918). Kind of series: stopped flow CO2 hydrase assay, hCA II inhibition.

Chain of hCA XII (O43570 25-354): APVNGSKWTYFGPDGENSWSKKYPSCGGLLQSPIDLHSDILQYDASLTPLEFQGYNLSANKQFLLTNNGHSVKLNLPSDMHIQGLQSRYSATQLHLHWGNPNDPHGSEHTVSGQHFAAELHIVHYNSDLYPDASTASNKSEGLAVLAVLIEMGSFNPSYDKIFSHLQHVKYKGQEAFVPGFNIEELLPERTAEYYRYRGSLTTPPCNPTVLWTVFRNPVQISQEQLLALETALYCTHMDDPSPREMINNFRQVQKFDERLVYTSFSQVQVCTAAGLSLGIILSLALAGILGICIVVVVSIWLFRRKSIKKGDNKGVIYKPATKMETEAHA
Chain of hCA I (P00915 whole entry): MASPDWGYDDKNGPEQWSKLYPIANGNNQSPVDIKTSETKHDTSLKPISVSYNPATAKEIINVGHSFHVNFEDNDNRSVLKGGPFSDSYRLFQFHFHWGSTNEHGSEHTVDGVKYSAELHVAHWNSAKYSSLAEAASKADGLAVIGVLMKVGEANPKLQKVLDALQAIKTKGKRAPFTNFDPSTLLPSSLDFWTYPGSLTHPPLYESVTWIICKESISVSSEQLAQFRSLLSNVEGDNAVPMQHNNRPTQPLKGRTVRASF
Description for hCA II: (§1) An Applied Photophysics stopped-flow instrument has been used for assaying the CA catalyzed CO2 hydration activity using the Khalifah procedure [23]. The used indicator was phenol red (0.2 mM), the absorbance maximum was of 557 nm, and the buffer was 20 mM Hepes (pH 7.5), whereas 20 mM Na2SO4 were employed for maintaining the ionic strength constant. […] Uncatalyzed rates were subtracted from the observed total rates. […] Inhibitor and enzyme solutions were preincubated together for 15 min, for assuring the formation of the E–I complex. The inhibition constants were obtained by non-linear least squares using the Cheng–Prusoff equation, as reported earlier [24, 25, 26] and represent the mean from at least three different determinations.
Description for hCA IX: as §1
Description for hCA XII: as §1

As usually defined, the Ki is the equilibrium dissociation constant of an inhibitor or competing ligand from its target. The melting point is the temperature of the solid-liquid transition. On to `COc1cccc(NC(=O)NNC(=O)C2CCN(C(=O)c3ccc(S(N)(=O)=O)cc3)CC2)c1` [Compound 5p, (3-Methoxyphenyl)-2-(1-(4-sulfamoylbenzoyl)piperidine-4-carbonyl)hydrazinecarboxamide], for which the melting point lay within 218 to 220 °C. On hCA IX, the inhibitory constant (Ki) is 24 nM. Further, the Ki at hCA I came to 281 nM. Besides, the Ki on hCA XII is 17 nM. The affinity on hCA II, expressed as Ki, was 45.6 nM. The “increase of activity on hCA II on shifting the methoxy group into 3-position” value at hCA II (versus methoxy analogs 5o/5q) is listed as “about 2 fold”.

As to `NS(=O)(=O)c1ccc(C(=O)N2CCC(C(=O)NNC(=S)Nc3ccc(Cl)c(Cl)c3)CC2)cc1` [Compound 6g, N-(3,4-Dichlorophenyl)-2-(1-(4-sulfamoylbenzoyl)piperidine-4-carbonyl)hydrazinecarbothioamide], the melting point lay in the range of 232 to 233 °C. Besides, affinity on hCA IX was put at a Ki of 4.7 nM. On hCA I, this compound came in with an inhibitory constant (Ki) of 442 nM. Moreover, affinity at hCA XII was put at a Ki of 26.9 nM. This compound had a Ki on hCA II of 22.4 nM.

Compound `NS(=O)(=O)c1ccc(C(=O)N2CCC(C(=O)NNC(=O)Nc3ccccc3F)CC2)cc1` [Compound 5f, N-(2-fluorophenyl)-2-(1-(4-sulfamoylbenzoyl)piperidine-4-carbonyl)hydrazinecarboxamide] returned a melting point of 229 to 230 °C. At hCA IX, this compound registered a Ki of 22.5 nM. This compound also came in with a Ki on hCA I of 562 nM. In addition, the Ki at hCA XII is 8.4 nM. In addition, at hCA II, the Ki stood at 24.6 nM.

As to `Cc1ccccc1NC(=O)NNC(=O)C1CCN(C(=O)c2ccc(S(N)(=O)=O)cc2)CC1` [Compound 5j, 2-(1-(4-Sulfamoylbenzoyl)piperidine-4-carbonyl)-N-(o-tolyl)hydrazinecarboxamide], the melting point was 238 to 240 °C. On hCA IX, the Ki was determined as 34.5 nM. For the same compound, the Ki at hCA I was determined as 67.6 nM. Moreover, at hCA XII, the Ki stood at 60.4 nM. On hCA II, the Ki was 25.4 nM.

`NS(=O)(=O)c1ccc(C(=O)N2CCC(C(=O)NNC(=S)NCc3ccccc3)CC2)cc1` [Compound 6v, N-Benzyl-2-(1-(4-sulfamoylbenzoyl)piperidine-4-carbonyl)hydrazinecarbothioamide]: the melting point was > 250 °C. Further, the Ki at hCA IX amounted to 24.2 nM. The same compound gave a Ki at hCA I of 198 nM. Further, the Ki at hCA XII came out at 25 nM. The affinity on hCA II corresponds to a Ki of 71.4 nM.

`Cc1cccc(C)c1NC(=O)NNC(=O)C1CCN(C(=O)c2ccc(S(N)(=O)=O)cc2)CC1` [Compound 5m, N-(2,6-Dimethylphenyl)-2-(1-(4-sulfamoylbenzoyl)piperidine-4-carbonyl)hydrazinecarboxanide] gave a melting point of 212 to 213 °C. Besides, on hCA IX, the Ki is 25.1 nM. At hCA I, this compound showed an inhibition constant Ki of 364 nM. The Ki on hCA XII came to 51.2 nM. This compound had a Ki at hCA II of 62.1 nM.

Compound `NS(=O)(=O)c1ccc(C(=O)N2CCC(C(=O)NNC(=O)Nc3cccc(F)c3)CC2)cc1` [Compound 5g, N-(3-fluorophenyl)-2-(1-(4-sulfamoylbenzoyl)piperidine-4-carbonyl)hydrazinecarboxamide] registered a melting point of 214 to 215 °C. Besides, the Ki at hCA IX came to 89.7 nM. The same compound returned a Ki on hCA I of 277 nM. The compound further returned a Ki at hCA XII of 19.4 nM. On hCA II, this compound had a Ki of 17.7 nM.

`Cc1ccccc1NC(=S)NNC(=O)C1CCN(C(=O)c2ccc(S(N)(=O)=O)cc2)CC1` [Compound 6r, 2-(1-(4-sulfamoylbenzoyl)piperidine-4-carbonyl)-N-(o-tolyl)hydrazine-1-carbothioamide] came in with a melting point of 209 to 210 °C. Also, the Ki at hCA IX worked out at 9 nM. Moreover, the affinity on hCA I, expressed as Ki, was 277 nM. The same compound came in with a Ki at hCA XII of 18.4 nM. The compound further gave a Ki at hCA II of 38.5 nM.

Turning to `NS(=O)(=O)c1ccc(C(=O)N2CCC(C(=O)NNC(=O)Nc3ccc(Cl)cc3)CC2)cc1` [Compound 5d, N-(4-Chlorophenyl)-2-(1-(4-sulfamoylbenzoyl)piperidine-4-carbonyl)hydrazinecarboxamide], the melting point lay in the range of 209 to 210 °C. This compound also came in with a Ki at hCA IX of 93.7 nM. At hCA I, this compound yielded a Ki of 447 nM. At hCA XII, this compound showed a Ki of 101 nM. The same compound displayed a Ki on hCA II of 109 nM.

In turn, `COc1ccccc1NC(=S)NNC(=O)C1CCN(C(=O)c2ccc(S(N)(=O)=O)cc2)CC1` [Compound 6j, N-(2-methoxyphenyl)-2-(1-(4-sulfamoylbenzoyl)piperidine-4-carbonyl)hydrazine-1-carbothioamide] displayed a melting point of 214 to 215 °C. This compound showed an inhibition constant (Ki) at hCA IX of 4.2 nM. Also, the “hCA IX, hCA XII/hCA I selectivity” value at hCA IX (hCA IX and hCA XII versus hCA I) is “about 35 fold”. In addition, the Ki at hCA I was found to be 160 nM. The Ki at hCA XII was determined as 4.6 nM. The Ki on hCA II is 13.1 nM.

Turning to `NS(=O)(=O)c1ccc(C(=O)N2CCC(C(=O)NNC(=S)Nc3ccc(Cl)cc3)CC2)cc1` [Compound 6f, N-(4-Chlorophenyl)-2-(1-(4-sulfamoylbenzoyl)piperidine-4-carbonyl)hydrazinecarbothioamide], the melting point lay within 222 to 223 °C. This compound yielded a Ki at hCA IX of 26.1 nM. This compound yielded a Ki at hCA I of 131 nM. The compound also showed a Ki on hCA XII of 17.7 nM. On hCA II, the affinity, expressed as Ki, was 41.6 nM.

`COc1ccc(CNC(=S)NNC(=O)C2CCN(C(=O)c3ccc(S(N)(=O)=O)cc3)CC2)cc1` [Compound 6w, N-(4-Methoxybenzyl)-2-(1-(4-sulfamoylbenzoyl)piperidine-4-carbonyl)hydrazinecarbothioamide] displayed a melting point of 240 to 241 °C. Affinity at hCA IX was put at a Ki of 31.7 nM. Further, the Ki on hCA I came to 178 nM. Moreover, the Ki on hCA XII came out at 29.9 nM. On hCA II, this compound had a Ki of 29.3 nM.

In the case of `NS(=O)(=O)c1ccc(C(=O)N2CCC(C(=O)NNC(=S)Nc3ccccc3Cl)CC2)cc1` [Compound 6d, N-(2-Chlorophenyl)-2-(1-(4-sulfamoylbenzoyl)piperidine-4-carbonyl)hydrazinecarbothioamide], the melting point fell in the range of 209 to 210 °C. For the same compound, the affinity on hCA IX, expressed as Ki, was 8.2 nM. The compound further registered a Ki at hCA I of 173 nM. On hCA XII, this compound displayed a Ki of 27.1 nM. For the same compound, the affinity at hCA II, expressed as Ki, was 20.6 nM.

With `Cc1cccc(NC(=O)NNC(=O)C2CCN(C(=O)c3ccc(S(N)(=O)=O)cc3)CC2)c1` [Compound 5k, 2-(1-(4-Sulfamoylbenzoyl)piperidine-4-carbonyl)-N-(m-tolyl)hydrazinecarboxamide], the melting point lay within 222 to 225 °C. Further, at hCA IX, affinity was put at a Ki of 8.2 nM. Affinity on hCA I was put at a Ki of 94.5 nM. For the same compound, affinity on hCA XII was put at a Ki of 15.6 nM. The Ki on hCA II worked out at 114 nM.

Regarding `NS(=O)(=O)c1ccc(C(=O)N2CCC(C(=O)NNC(=S)Nc3ccc(F)cc3)CC2)cc1` [Compound 6p, N-(4-Fluorophenyl)-2-(1-(4-sulfamoylbenzoyl)piperidine-4-carbonyl)hydrazinecarbothioamide], the melting point is 215 to 216 °C. In addition, the affinity at hCA IX, expressed as Ki, was 20.1 nM. The compound also showed a Ki at hCA I of 79.6 nM. This compound returned a Ki on hCA XII of 15.9 nM. The compound further had a Ki at hCA II of 23 nM.

With `NS(=O)(=O)c1ccc(C(=O)N2CCC(C(=O)NNC(=S)NC3CCCCC3)CC2)cc1` [Compound 6y, N-Cyclohexyl-2-(1-(4-sulfamoylbenzoyl)piperidine-4-carbonyl)hydrazinecarbothioamide], the melting point was 183 to 184 °C. The Ki on hCA IX turned out to be 1.7 nM. Also, the affinity on hCA I corresponds to a Ki of 118 nM. For the same compound, the Ki on hCA XII was 19.6 nM. At hCA II, this compound had a Ki of 5.7 nM.

The compound `COc1ccccc1NC(=O)NNC(=O)C1CCN(C(=O)c2ccc(S(N)(=O)=O)cc2)CC1` [Compound 5o] registered a melting point of 219 to 220 °C. Also, the affinity on hCA IX corresponds to a Ki of 8.6 nM. At hCA I, this compound yielded a Ki of 451 nM. For the same compound, affinity at hCA XII was put at a Ki of 19.6 nM. At hCA II, this compound had a Ki of 185 nM.

Regarding `COc1ccc(NC(=S)NNC(=O)C2CCN(C(=O)c3ccc(S(N)(=O)=O)cc3)CC2)cc1` [Compound 6l, N-(4-Methoxyphenyl)-2-(1-(4-sulfamoylbenzoyl)piperidine-4-carbonyl)hydrazinecarbothioamide], the melting point was > 250 °C. At hCA IX, this compound gave a Ki of 22.1 nM. Besides, the Ki on hCA I stood at 211 nM. The compound also showed a Ki at hCA XII of 27.8 nM. Also, affinity on hCA II was put at a Ki of 15.1 nM.

Turning to `NS(=O)(=O)c1ccc(C(=O)N2CCC(C(=O)NNC(=S)Nc3ccccc3)CC2)cc1` [Compound 6a, N-phenyl-2-(1-(4-sulfamoylbenzoyl)piperidine-4-carbonyl)hydrazine-1-carbothioamide], the melting point is 210 to 211 °C. Also, the Ki on hCA IX stood at 28.8 nM. For the same compound, on hCA I, the Ki stood at 30.1 nM. In addition, the Ki at hCA XII was found to be 3.2 nM. For the same compound, the “selectivity of hCA XII inhibition on hCA I and hCA II” value on hCA XII (hCA XII versus hCA I and hCA II) was “about 8 fold”. On hCA II, this compound returned a Ki of 26.5 nM.

In turn, `NS(=O)(=O)c1ccc(C(=O)N2CCC(C(=O)NNC(=S)Nc3c(Cl)cccc3Cl)CC2)cc1` [Compound 6i, N-(2,6-Dichlorophenyl)-2-(1-(4-sulfamoylbenzoyl)piperidine-4-carbonyl)hydrazinecarbothioamide] returned a melting point of 179 to 180 °C. On hCA IX, this compound gave a Ki of 24.2 nM. Also, the Ki on hCA I amounted to 1340 nM. On hCA XII, this compound gave a Ki of 10 nM. On hCA II, this compound registered a Ki of 21.5 nM.

Consider `NS(=O)(=O)c1ccc(C(=O)N2CCC(C(=O)NNC(=S)Nc3c(F)cccc3F)CC2)cc1` [Compound 6q, N-(2,6-Difluorophenyl)-2-(1-(4-sulfamoylbenzoyl)piperidine-4-carbonyl)hydrazinecarbothioamide], for which the melting point was 242 to 243 °C. The compound also yielded a Ki on hCA IX of 5.9 nM. The affinity on hCA I corresponds to a Ki of 65.4 nM. Besides, the Ki at hCA XII was determined as 5.6 nM. At hCA II, this compound displayed a Ki of 28.2 nM.
